In data set [1] the test system is human gastric cancer cell line MGC-803. In words: MTT assay, MGC-803 cells. The format is cell-based. To be noted: for inhibition at 10 µM: 72 h, read-out: Inhibition rates against different cells (%) MGC-803; for IC50: 72 h after treatment. As for the experimental part:
(§1) The in vitro antitumor activity of the newly synthesized compounds 5a–5n were evaluated against a panel of three human cancer cell lines, including human gastric cancer cell line MGC-803, human prostate cancer cell line PC3, and human breast cancer cell line Bcap-37, and one normal cell line NIH3T3 (mouse embryo fibroblast cell line) by MTT method. Adriamycin (ADM) was chosen as a reference drug due to its availability and widespread use. Each experiment was repeated at least three times.
(§2) Human gastric cancer cell line MGC-803, human prostate cancer cell line PC3, and human breast cancer cell line Bcap-37 and one normal cell line NIH3T3 were obtained from Cell Bank of Type Culture Collection of Chinese Academy of Sciences (Shanghai, China). NIH3T3 was routinely maintained in a DMEM medium, while all the other cell lines were cultured in a 1640 medium. All the cells were grown in the medium supplemented with 10% FBS at 37 °C with 5% CO2.
(§3) The growth-inhibitory effects of the test compounds were determined on MGC-803, PC3, Bcap-37, and NIH3T3 cells. All cell types were seeded into 96-well plates at a density of 2 × 10^3 cells/well 100 μL of the proper culture medium and incubated with increasing concentrations of the compounds at 37 °C under cell culturing conditions. An MTT assay (Roche Molecular Biochemicals, 1465-007) was performed 72 h later according to the instructions provided by Roche. The precipitated formazan crystals were dissolved in SDS, and the absorbance was read at 595 nm with a microplate reader (BIO-RAD, model 680), which is directly proportional to the number of living cells in culture. The experiment was performed in triplicate. The percentage cytotoxicity was calculated using the formula. %Cytotoxicity=Controlabs-Blankabs-Testabs-Blankabs/Controlabs-Blankabs×100

Data set [2] relates to human prostate cancer cell line PC3. In words: MTT assay, PC3 cells. The format is cell-based. To be noted: for inhibition at 10 µM: PC-3, 10 μM, 72 h, read-out: Inhibition rates against different cells (%) PC3; for IC50: PC-3, 72 h after treatment. As for the experimental part: as §1, §2, §3
In data set [3] the test system is human breast cancer cell line Bcap-37. In words: MTT assay, Bcap-37 cells. The format is cell-based. To be noted: for inhibition at 10 µM: Bcap37, 10 μM, 72 h, read-out: Inhibition rates against different cells (%) Bcap-37; for IC50: Bcap37, 72 h after treatment. As for the experimental part:
as §1, §2, §3

The test system of data set [4] is normal cell line NIH3T3 (mouse embryo fibroblast cell line). In words: MTT assay, NIH3T3 normal cells. The format is cell-based. To be noted: 72 h, read-out: Inhibition rates against different cells (%) NIH3T3. As for the experimental part: as §1, §2, §3

For the compound `COc1cccc2c1C(=O)c1c(O)c3c(c(O)c1C2=O)C[C@@](O)(C(=O)CO)C[C@@H]3O[C@H]1C[C@H](N)[C@H](O)[C@H](C)O1` [ADM, Adriamycin, reference compound], the inhibition at 10 µM in data set [1] was 97.5 ± 1.2%; in data set [2], 91.2 ± 0.4%; in data set [3], 94.5 ± 0.9%; in data set [4] it was 100 ± 0.7%. Also, the IC50 amounted to 0.74 ± 0.24 µM in data set [1], 1.01 ± 0.2 µM in data set [2] and 1.9 ± 0.25 µM in data set [3].
With `Cc1ccc2ncnc(Oc3ccccc3/C=C/C(=O)/C=C/c3ccccc3F)c2c1` [Compound 5a, (1E,4E)-1-(2-fluorophenyl)-5-(2-((6-methylquinazolin-4-yl)oxy)phenyl)penta-1,4-dien-3-one], the inhibition at 10 µM worked out at 71.9 ± 0.9% in data set [1], 68.5 ± 2.3% in data set [2], 44.1 ± 2.6% in data set [3] and 65.7 ± 1.3% in data set [4]. The IC50 worked out at 7.69 ± 0.37 µM in data set [1], 9.24 ± 0.46 µM in data set [2] and 11.7 ± 0.39 µM in data set [3].
As for `Cc1ccc2ncnc(Oc3ccccc3/C=C/C(=O)/C=C/c3ccccc3Cl)c2c1` [Compound 5b, (1E,4E)-1-(2-chlorophenyl)-5-(2-((6-methylquinazolin-4-yl)oxy)phenyl)penta-1,4-dien-3-one], the melting point lay in the range of 152 to 154 °C. For the same compound, in data set [1], the inhibition at 10 µM was 83.5 ± 1.5% and half-maximal inhibition (IC50) was put at 5.2 ± 0.51 µM. In data set [2], the inhibition at 10 µM amounted to 78.7 ± 2.4% and the IC50 amounted to 8.12 ± 0.46 µM. In data set [3], the inhibition at 10 µM is 57.3 ± 2% and the IC50 was determined as 10.1 ± 0.67 µM. Further, the inhibition at 10 µM in data set [4] was 15.4 ± 1.5%.
As to `Cc1ccc2ncnc(Oc3ccccc3/C=C/C(=O)/C=C/c3ccc(Cl)cc3)c2c1` [Compound 5c, (1E,4E)-1-(4-chlorophenyl)-5-(2-((6-methylquinazolin-4-yl)oxy)phenyl)penta-1,4-dien-3-one], the melting point is 173 to 176 °C. Besides, in data set [1], the inhibition at 10 µM is 79.2 ± 2.8% and the IC50 was determined as 5.44 ± 0.45 µM. Further, in data set [2], the inhibition at 10 µM came to 76.5 ± 1.7% and the midpoint of inhibition, the IC50, lay at 7.85 ± 0.32 µM. Further, in data set [3], the inhibition at 10 µM came out at 54.2 ± 1.1% and half-maximal inhibition (IC50) was put at 9.34 ± 0.52 µM. The inhibition at 10 µM in data set [4] came to 16.1 ± 2.7%.
Consider `Cc1ccc2ncnc(Oc3ccccc3/C=C/C(=O)/C=C/c3cc([N+](=O)[O-])ccc3Cl)c2c1` [Compound 5d, (1E,4E)-1-(2-chloro-5-nitrophenyl)-5-(2-((6-methylquinazolin-4-yl)oxy)phenyl)penta-1,4-dien-3-one], for which the inhibition at 10 µM came to 87.5 ± 0.2% in data set [1], 86.3 ± 0.8% in data set [2], 58.5 ± 1.3% in data set [3] and 71.9 ± 1.4% in data set [4]. Further, the results for the IC50 in data set [1], in data set [2] and in data set [3] were 1.72 ± 0.22 µM, 2.68 ± 0.43 µM and 7.52 ± 0.36 µM, respectively.
As for `Cc1ccc2ncnc(Oc3ccccc3/C=C/C(=O)/C=C/c3ccc(Cl)cc3Cl)c2c1` [Compound 5e, (1E,4E)-1-(2,4-dichlorophenyl)-5-(2-((6-methylquinazolin-4-yl)oxy)phenyl)penta-1,4-dien-3-one], the melting point fell in the range of 211 to 214 °C. Moreover, in data set [1], the inhibition at 10 µM stood at 87 ± 1% and the midpoint of inhibition, the IC50, lay at 1.89 ± 0.26 µM. In data set [2], the inhibition at 10 µM came to 75.2 ± 7.8% and it took 4.71 ± 0.36 µM to reach half-maximal inhibition (IC50). In addition, in data set [3], the inhibition at 10 µM was 67.3 ± 3.9% and the IC50 was found to be 9.6 ± 0.42 µM. The inhibition at 10 µM in data set [4] came out at 53.8 ± 1.8%.
For the compound `COc1ccc(OC)c(/C=C/C(=O)/C=C/c2ccccc2Oc2ncnc3ccc(C)cc23)c1` [Compound 5g], the melting point fell in the range of 122 to 123 °C. For the same compound, in data set [1], the inhibition at 10 µM came to 85.9 ± 1.2% and it took 2.02 ± 0.37 µM to reach half-maximal inhibition (IC50). Besides, in data set [2], the inhibition at 10 µM turned out to be 83.1 ± 2.8% and the half-inhibitory concentration (IC50) worked out at 2.18 ± 0.31 µM. Also, in data set [3], the inhibition at 10 µM amounted to 74.9 ± 2% and the midpoint of inhibition, the IC50, lay at 5.61 ± 0.5 µM. Further, the inhibition at 10 µM in data set [4] was 74.3 ± 0.9%.
With `Cc1cccc2c(Oc3ccccc3/C=C/C(=O)/C=C/c3ccccc3F)ncnc12` [Compound 5h, (1E,4E)-1-(2-fluorophenyl)-5-(2-((8-methylquinazolin-4-yl)oxy)phenyl)penta-1,4-dien-3-one], the inhibition at 10 µM in data set [1] was 62.3 ± 1.4%; in data set [2], 43.7 ± 12.1%; in data set [3] it was 36.6 ± 2.7%; in data set [4], 13.4 ± 2.2%. The IC50 stood at 9.06 ± 0.4 µM in data set [1], 11.7 ± 0.48 µM in data set [2] and 15.6 ± 0.51 µM in data set [3].
As for `Cc1cccc2c(Oc3ccccc3/C=C/C(=O)/C=C/c3ccccc3Cl)ncnc12` [Compound 5i, (1E,4E)-1-(2-chlorophenyl)-5-(2-((8-methylquinazolin-4-yl)oxy)phenyl)penta-1,4-dien-3-one], the melting point was 152 to 154 °C. In data set [1], the inhibition at 10 µM was determined as 79.4 ± 2.4% and half-maximal inhibition (IC50) required 7.78 ± 0.48 µM. Besides, in data set [2], the inhibition at 10 µM is 65.1 ± 2.6% and the IC50 is 9.36 ± 0.52 µM. Besides, in data set [3], the inhibition at 10 µM came out at 47.1 ± 2.6% and the concentration for half-maximal inhibition (IC50) was 10.7 ± 0.62 µM. In addition, the inhibition at 10 µM in data set [4] turned out to be 14.4 ± 2.6%.
The compound `Cc1cccc2c(Oc3ccccc3/C=C/C(=O)/C=C/c3ccc(Cl)cc3)ncnc12` [Compound 5j, (1E,4E)-1-(4-chlorophenyl)-5-(2-((8-methylquinazolin-4-yl)oxy)phenyl)penta-1,4-dien-3-one] showed a melting point of 161 to 163 °C. Besides, in data set [1], the inhibition at 10 µM amounted to 76.3 ± 0.8% and it took 6.42 ± 0.44 µM to reach half-maximal inhibition (IC50). Also, in data set [2], the inhibition at 10 µM was found to be 71.9 ± 3.1% and half-maximal inhibition (IC50) required 8.64 ± 0.47 µM. Moreover, in data set [3], the inhibition at 10 µM was 45.4 ± 2.2% and the IC50 was determined as 12.1 ± 0.31 µM. In data set [4], the inhibition at 10 µM was determined as 41 ± 2.1%.
In turn, `Cc1cccc2c(Oc3ccccc3/C=C/C(=O)/C=C/c3cc([N+](=O)[O-])ccc3Cl)ncnc12` [Compound 5k, (1E,4E)-1-(2-chloro-5-nitrophenyl)-5-(2-((8-methylquinazolin-4-yl)oxy)phenyl)penta-1,4-dien-3-one] registered a melting point of 198 to 200 °C. In addition, in data set [1], the inhibition at 10 µM came to 82.1 ± 3% and half-maximal inhibition (IC50) was put at 2.94 ± 0.32 µM. Also, in data set [2], the inhibition at 10 µM is 76.3 ± 2.5% and the IC50 was found to be 8.12 ± 0.46 µM. For the same compound, in data set [3], the inhibition at 10 µM came out at 60.2 ± 1.4% and the concentration for half-maximal inhibition (IC50) amounted to 8.92 ± 0.58 µM. In data set [4], the inhibition at 10 µM is 3 ± 2.3%.
In turn, `Cc1cccc2c(Oc3ccccc3/C=C/C(=O)/C=C/c3ccc(Cl)cc3Cl)ncnc12` [Compound 5l, (1E,4E)-1-(2,4-dichlorophenyl)-5-(2-((8-methylquinazolin-4-yl)oxy)phenyl)penta-1,4-dien-3-one] gave a melting point of 175 to 178 °C. Also, in data set [1], the inhibition at 10 µM was 61.2 ± 1.3% and the IC50 came out at 4.33 ± 0.35 µM. Further, in data set [2], the inhibition at 10 µM came to 55.7 ± 1.5% and half-maximal inhibition (IC50) was put at 9.08 ± 0.52 µM. For the same compound, in data set [3], the inhibition at 10 µM was 54.6 ± 1% and it took 9.83 ± 0.46 µM to reach half-maximal inhibition (IC50). For the same compound, the inhibition at 10 µM in data set [4] came to 0.8 ± 1.6%.
`Cc1cccc2c(Oc3ccccc3/C=C/C(=O)/C=C/c3c(Cl)cccc3Cl)ncnc12` [Compound 5m, (1E,4E)-1-(2,6-dichlorophenyl)-5-(2-((8-methylquinazolin-4-yl)oxy)phenyl)penta-1,4-dien-3-one] returned a melting point of 161 to 163 °C. For the same compound, in data set [1], the inhibition at 10 µM turned out to be 81.1 ± 1.7% and the IC50 came to 2.05 ± 0.39 µM. Further, in data set [2], the inhibition at 10 µM amounted to 81.2 ± 2.8% and the IC50 came to 3.79 ± 0.47 µM. For the same compound, in data set [3], the inhibition at 10 µM amounted to 66.4 ± 1.5% and inhibition was half-maximal at 7.82 ± 0.39 µM (IC50). Besides, the inhibition at 10 µM in data set [4] turned out to be 12.4 ± 2.5%.
The compound `COc1ccc(OC)c(/C=C/C(=O)/C=C/c2ccccc2Oc2ncnc3c(C)cccc23)c1` [Compound 5n, (1E,4E)-1-(2,5-dimethoxyphenyl)-5-(2-((8-methylquinazolin-4-yl)oxy)phenyl)penta-1,4-dien-3-one] gave a melting point of 176 to 178 °C. Further, in data set [1], the inhibition at 10 µM was found to be 78.7 ± 2.7% and it took 3.33 ± 0.42 µM to reach half-maximal inhibition (IC50). Moreover, in data set [2], the inhibition at 10 µM came to 69 ± 1.7% and inhibition was half-maximal at 4.16 ± 0.43 µM (IC50). In data set [3], the inhibition at 10 µM was 55.8 ± 1.1% and the IC50 came out at 8.7 ± 0.54 µM. Besides, in data set [4], the inhibition at 10 µM was 29.6 ± 2.4%.

Values taken from publication PMC5352699, “Synthesis and in vitro antitumor activity of (1E,4E)-1-aryl-5-(2-((quinazolin-4-yl)oxy)phenyl)-1,4-pentadien-3-one derivatives” (Chemistry Central Journal, 2017).
